Read-outs that look alike come from different tables or passages of the source.
Assays:
[1] = test system: NRF2 (nuclear factor erythroid 2-related factor 2); assay: NRF2 +/-GSH activation assay (DiscoverX PathHunter NRF2 translocation kit, U2OS cells); assay type: cell-based; details: for NRF2 activation +GSH Emax / NRF2 activation −GSH Emax: normalised to DMF high control
Summary of the method: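 U2OS PathHunter eXpress cells, 24 h post-plating, treated with compound ±GSH (+GSH arm: 30 min compound–GSH pre-incubation, 6 mM working GSH), then 6 h at 37 °C. NRF2 nuclear translocation read by enzyme-fragment-complementation chemiluminescence; % activation normalised to DMF high and untreated low controls.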

[2] = Hepatocyte stability assay, mouse; assay type: in vitro ADME; details: mouse, hepatocytes; for hepatocyte CLint at 10 μM: Hepatocyte stability Clint; for half-life at 10 μM: Hepatocyte stability T½
Summary of the method: (§1)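 Cryopreserved hepatocytes (viability >70%), 0.5×10^6 cells/mL in Leibovitz buffer, preincubated 10 min at 37° C, then 10 μM compound (0.1% DMSO) in duplicate; sampled 0-60 min, acetonitrile quench, LC-MS/MS. CLint and half-life from ln % remaining vs time; buffer-only incubation as negative control.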

[3] = Hepatocyte stability assay, human; assay type: in vitro ADME; details: human, hepatocytes; for hepatocyte CLint at 10 μM: Hepatocyte stability Clint; for half-life at 10 μM: Hepatocyte stability T½
Summary of the method: as §1

[4] = test system: IL-1β cytokine output from THP-1s; assay: THP-1 AlphaLISA IL-1β cytokine inhibition assay; assay type: cell-based; details: for IC50: Homo sapiens, THP-1, differentiated THP-1 cells, LPS then nigericin; for IL-1β lowering, result in words: THP-1 IL-1β assay
Summary of the method: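 THP-1 cells differentiated with PMA for 72 h, pre-incubated with compound 30 min, then LPS-primed 24 h and Nigericin-stimulated 1 h (37° C./5% CO2). Supernatant IL-1β measured by AlphaLISA; percentage inhibition normalised to +LPS (high) and −LPS (low) plate controls.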

[5] = +GSH, 30 minute compound-GSH pre-incubation, read-out: NRF2 activation +GSH EC50
[6] = −GSH, U2OS PathHunter cells, 6 hours compound treatment, read-out: NRF2 activation −GSH EC50

| Structure (SMILES) | EC50 [1, 5] [µM] | NRF2 activation +GSH Emax ([1]; +GSH) [%] | EC50 [1, 6] [µM] | NRF2 activation −GSH Emax ([1]; −GSH) [%] | hepatocyte CLint at 10 μM [2] [µL/min/1e6 cells] | half-life at 10 μM [2] [min] | hepatocyte CLint at 10 μM [3] [µL/min/1e6 cells] | half-life at 10 μM [3] [min] | IC50 [4] [µM] | IL-1β lowering, result in words [4] |
| --- | --- | --- | --- | --- | --- | --- | --- | --- | --- | --- |
| C=C(Cc1nc(Cc2ccc(C(C)(C)C)cc2)no1)C(=O)O [Example 15, 2-((3-(4-(tert-butyl)benzyl)-1,2,4-oxadiazol-5-yl)methyl)acrylic acid] | > 100 | 33 | 57.1 | 41 | 31 | 35 | 7.5 | 167 | 23.8 | – |
| C=C(Cc1nc(Cc2cc(Cl)cc(Cl)c2)no1)C(=O)O [Example 16, 2-((3-(3,5-dichlorobenzyl)-1,2,4-oxadiazol-5-yl)methyl)acrylic acid] | 23.6 | 149 | 19.4 | 180 | 29 | 45 | < 4 | > 362 | 45.6 | – |
| C=C(Cc1nc(-c2ccc(CCCC)cc2)no1)C(=O)O [Example 18, 2-((3-(4-butylphenyl)-1,2,4-oxadiazol-5-yl)methyl)acrylic acid] | 3.8 | 159 | 3.5 | 207 | > 460 | < 3 | 159 | 11 | 15.3 | – |
| C=C(Cc1nc(C2(c3cccc(Cl)c3)CC2)no1)C(=O)O [Example 21, 2-((3-(1-(3-chlorophenyl)cyclopropyl)-1,2,4-oxadiazol-5-yl)methyl)acrylic acid] | 44 | 81 | 31.7 | 125 | 62 | 28 | 21 | 83 | > 100 | not effective |
| C=C(Cc1nc(-c2ccc(CCCCC)cc2)no1)C(=O)O [Example 23, 2-((3-(4-pentylphenyl)-1,2,4-oxadiazol-5-yl)methyl)acrylic acid] | 2.2 | 162 | 1.6 | 209 | > 460 | < 3 | 321 | 5 | 4.6 | – |
| C=C(Cc1nc(C2(c3ccc(Cl)cc3)CCC2)no1)C(=O)O [Example 25, 2-((3-(1-(4-chlorophenyl)cyclobutyl)-1,2,4-oxadiazol-5-yl)methyl)acrylic acid] | > 100 | 31 | > 100 | 32 | 17 | 90 | 12 | 104 | 64.1 | – |
| C=C(Cc1nc(Cc2ccc(CCCCC)cc2)no1)C(=O)O [Example 28, 2-((3-(4-pentylbenzyl)-1,2,4-oxadiazol-5-yl)methyl)acrylic acid] | 4 | 201 | 3 | 264 | > 460 | < 3 | 103 | 12 | 7.7 | – |
| C=C(Cc1nc(CCCCCCC(C)(F)F)no1)C(=O)O [Example 31, 2-((3-(7,7-difluorooctyl)-1,2,4-oxadiazol-5-yl)methyl)acrylic acid] | 40.9 | 127 | 35 | 178 | 42 | 27 | 5 | 246 | > 100 | not effective |
| [2H]C([2H])([2H])C([2H])([2H])C([2H])([2H])C([2H])([2H])C([2H])([2H])C([2H])([2H])C([2H])([2H])C([2H])([2H])c1noc(CC(=C)C(=O)O)n1 [Example 34, 2-((3-(octyl-d17)-1,2,4-oxadiazol-5-yl)methyl)acrylic acid] | 4.7 | 167 | 3.7 | 222 | 374 | 4 | 78 | 18 | 9.5 | – |
| C=C(Cc1nc(CCc2ccc(CCC)cc2)no1)C(=O)O [Example 36, 2-((3-(4-propylphenethyl)-1,2,4-oxadiazol-5-yl)methyl)acrylic acid] | 14.2 | 181 | 10.1 | 216 | 249 | 7 | 23 | 61 | 37.5 | – |
| C=C(Cc1nnc(CCCCCCCC)s1)C(=O)O [Example 37, 2-((5-octyl-1,3,4-thiadiazol-2-yl)methyl)acrylic acid] | 9.5 | 139 | 8.4 | 162 | > 481 | < 3 | 32 | 40 | 14.6 | – |
| C=C(Cc1nc(CCCCCCCC)co1)C(=O)O [Example 39, 2-((4-octyloxazol-2-yl)methyl)acrylic acid] | 7.6 | 172 | 5.1 | 234 | > 460 | < 3 | 386 | 3 | 8.5 | – |
| C=C(Cc1nc(Cc2ccc(C(F)(F)F)cc2)no1)C(=O)O [Example 42, 2-((3-(4-(trifluoromethyl)benzyl)-1,2,4-oxadiazol-5-yl)methyl)acrylic acid] | > 100 | 8 | > 100 | 63 | 11 | 118 | < 3 | > 460 | 27 | – |
| C=C(Cc1nc(C2(c3ccc(OC)cc3)CC2)no1)C(=O)O [Example 45, 2-((3-(1-(4-methoxyphenyl)cyclopropyl)-1,2,4-oxadiazol-5-yl)methyl)acrylic acid] | > 100 | 9 | > 100 | 55 | 33 | 49 | 8 | 178 | 38.8 | – |
| C=C(Cc1nc(Cc2ccc(OC(F)(F)F)cc2)no1)C(=O)O [Example 46, 2-((3-(4-(trifluoromethoxy)benzyl)-1,2,4-oxadiazol-5-yl)methyl)acrylic acid] | 36.2 | 51 | 31.1 | 106 | 17 | 76 | < 3 | > 447 | 41.9 | – |
| C=C(Cc1nc(C2(c3ccc(OC(F)(F)F)cc3)CC2)no1)C(=O)O [Example 49, 2-((3-(1-(4-(trifluoromethoxy)phenyl)cyclopropyl)-1,2,4-oxadiazol-5-yl)methyl)acrylic acid] | 57.5 | 56 | 49.2 | 109 | 15 | 86 | 8 | 172 | 12.4 | – |
| C=C(Cc1nc(C2CCCCCCC2)no1)C(=O)O [Example 63, 2-((3-cyclooctyl-1,2,4-oxadiazol-5-yl)methyl)acrylic acid] | 58 | 49 | 25.8 | 114 | 23 | 60 | 8 | 169 | > 100 | not effective |
| C=C(Cc1nc(C(F)(F)c2ccc(OC(F)(F)F)cc2)no1)C(=O)O [Example 94, 2-((3-(difluoro(4-(trifluoromethoxy)phenyl)methyl)-1,2,4-oxadiazol-5-yl)methyl)acrylic acid] | 13.8 | 183 | 7.9 | 208 | 29 | 66 | < 3 | > 460 | 20.5 | – |
| C=C(Cc1nc(C2(c3cc(Cl)c(F)c(Cl)c3)CC2)no1)C(=O)O [Example 133, 2-((3-(1-(3,5-dichloro-4-fluorophenyl)cyclopropyl)-1,2,4-oxadiazol-5-yl)methyl)acrylic acid] | 4.2 | 281 | 3.5 | 234 | 338 | 4 | 73 | 19 | 1.6 | – |
